# Results published in patent US20080188499A1, “Carbo- and Hetero-Cyclic Antibiotics and Use Thereof” (priority 2004, published 2008).
# Read-outs that look alike come from different tables or passages of the source.
# Legend:
# [1] = system: E. coli ATCC 25922; test: MIC determination by broth microdilution, E. coli; format: cell-based, Escherichia coli
# Description: (§1) Bacteria. Susceptibility tests were performed against several bacterial species following the recommendations from the National Committee for […] (NCCLS). The MICs were determined by a broth microdilution technique using a final volume of 100 μl of cation-adjusted Mueller Hinton Broth (MHBCA) and a bacterial inoculum of 10^5-10^6 Colony Forming Units (CFU)/ml. The inocula were verified and precisely determined by applying 10 μl drops of 10 fold dilutions onto Triptic Soy Agar plates. The CFU were counted after an incubation of 24 h at 35° C. Any experiment showing an inoculum that was more or less than 10^5-10^6 CFU/ml was rejected. Control antibiotics and test compounds were prepared at a concentration equivalent to 2 fold the highest desired final concentration. Compounds were then diluted directly in the 96-well microtiter plates by serial 2-fold dilutions using a multichannel pipette. Microtiter plates were incubated for 24 h at 35° C. and growth was recorded by using a microtiter plate reader at 650 nm as well as by visual observation. The MIC was defined as the lowest concentration of compound yielding no visible growth. At least two commercial antibiotics (e.g., imipenem and vancomycin) were always included as internal microtiter plate controls in each MIC assay.
# [2] = system: MRSA strains; test: MIC determination by broth microdilution, antibiotic multi-resistant MRSA strains; format: cell-based, S. aureus
# Description: as §1
# [3] = system: Methicillin-Sensitive S. aureus strains (MSSA); test: MIC determination, Methicillin-Sensitive S. aureus; format: cell-based; settings: Staphylococcus aureus
# Description: as §1
# [4] = system: anaerobic bacteria; test: MIC determination, anaerobic bacteria; format: cell-based; settings: Bacteroides fragilis
# Description: as §1
# (§2) Fastidious bacteria. […]
# [5] = system: B. atrophaeus; test: MIC determination, B. atrophaeus; format: cell-based; settings: Bacillus atrophaeus
# Description: as §1
# [6] = system: Branhamella (Moraxella) catarrhalis; test: MIC determination, Branhamella (Moraxella) catarrhalis; format: cell-based
# Description: as §1, §2
# [7] = system: B. cereus; test: MIC determination, B. cereus; format: cell-based; settings: Bacillus cereus
# Description: as §1
# [8] = system: Haemophilus influenzae; test: MIC determination, Haemophilus influenzae; format: cell-based
# Description: as §1, §2
# [9] = system: bacterial genus Mycobacterium; test: MIC determination, Mycobacterium; format: cell-based, Mycobacterium smegmatis
# Description: as §1, §2
# [10] = system: Burkholderia cepacia; test: MIC determination, Burkholderia cepacia; format: cell-based
# Description: as §1
# [11] = system: B. subtilis; test: MIC determination, B. subtilis; format: cell-based; settings: Bacillus subtilis
# Description: as §1
# [12] = system: Yersinia enterocolytica; test: MIC determination, Yersinia enterocolytica; format: cell-based
# Description: as §1
# [13] = system: E. faecalis; test: MIC determination, Enterococci; format: cell-based; settings: Enterococcus faecalis
# Description: as §1
# [14] = system: S. aureus strain Newman; test: In vivo efficacy: S. aureus model of systemic infection in the mouse; settings: for antimicrobial activity in vivo (viable bacteria in the kidneys): S. aureus systemic infection, administrated by gavage 1 hour post-infection, kidneys 5 hours after inoculation
# Description: In vivo efficacy. The antimicrobial activity of compounds was also evaluated in a S. aureus model of systemic infection in the mouse. To produce the systemic infection, CD-1 female mice (20 g) were injected intra-peritoneally with 10^7 CFU of S. aureus strain Newman suspended in 0.5 ml of endotoxin-free PBS containing 5% mucin (w/v). The compounds were administrated at 1 hour post-infection and kidneys harvested and pooled, for each animal, 5 hours after bacterial inoculation. Tissues were homogenized in PBS and homogenates serially diluted and plated for CFU determination.
# [15] = system: DNA metabolism; test: Mode of action studies: macromolecular biosynthesis assays (incorporation of radiolabeled precursors); format: cell-based; settings: FIG. 1; initial mode of action studies
# Description: Mode of action studies. Macromolecular biosynthesis assays were performed to identify the microbial cellular processes selectively affected by antibiotic compounds. Exponentially growing bacteria in MHB were washed and diluted in a complete synthetic medium to an optical density of 0.2 (at 600 nm). Cells were then distributed in 96-well plates containing serially diluted antibiotic compounds and radiolabeled precursors. The radiolabeled precursors were D-[^3H]-alanine for peptidoglycan synthesis, [^3H]-thymidine for DNA synthesis, [^3H]-uridine for RNA synthesis and [^3H]-leucine for protein synthesis. Incorporation was allowed for 30 minutes at 35° C. before macromolecules were precipitated for 1 hour on ice in the presence of 10% trichloroacetic acid. The radioactive precipitates were then collected onto GC filters and the radioactivity measured by liquid scintillation counting. Data were expressed as the percentage of radioactivity incorporated compared to control cells grown in the absence of antibiotic compound.
# [16] = Escherichia coli, ATCC25922, E. coli ATCC 25922, read-out: MIC
molecule,measurement,setting,value
Gentamicin [reference compound],MIC,[1]; E. coli ATCC 25922,0.5 to 2 µg/mL
same,MIC,[2]; MRSA strain Sa211c,1 µg/mL
same,MIC,[2]; MRSA strain Sa212c,0.25 µg/mL
same,MIC,[2]; MRSA strain Sa220c,0.5 µg/mL
same,MIC,[2]; MRSA strain Sa224c,0.25 µg/mL
same,MIC,[2]; MRSA strain Sa228c,32 µg/mL
same,MIC,[2]; MRSA strain Sa234c,1 µg/mL
CN1CCN(c2cc3nc(/C=C/c4ccc([N+](=O)[O-])o4)nc(Nc4ccc(O)c(O)c4)c3cc2F)CC1 [Example VIII compound “q”],MIC,[3],4 to 8 µg/mL
same,MIC,[4],8 µg/mL
same,MIC,[5],8 µg/mL
same,MIC,[6],1 µg/mL
same,MIC,[7],8 µg/mL
same,MIC,[8],1 µg/mL
same,MIC,[9],8 µg/mL
same,MIC,"[2]; Staphylococcus aureus, MRSA, MRSA strain Sa211c, read-out: MIC",8 µg/mL
same,MIC,"[2]; Staphylococcus aureus, MRSA, MRSA strain Sa212c, read-out: MIC",8 µg/mL
same,MIC,"[2]; Staphylococcus aureus, MRSA, MRSA strain Sa220c, read-out: MIC",4 µg/mL
same,MIC,"[2]; Staphylococcus aureus, MRSA, MRSA strain Sa224c, read-out: MIC",8 µg/mL
same,MIC,"[2]; Staphylococcus aureus, MRSA, MRSA strain Sa228c, read-out: MIC",8 µg/mL
same,MIC,"[2]; Staphylococcus aureus, MRSA, MRSA strain Sa234c, read-out: MIC",8 µg/mL
same,MIC,"[2]; Staphylococcus aureus, MRSA, MRSA strain Sa248c, read-out: MIC",8 µg/mL
same,MIC,"[2]; Staphylococcus aureus, MRSA, MRSA strain Sa249c, read-out: MIC",8 µg/mL
same,MIC,"[2]; Staphylococcus aureus, MRSA, MRSA strain Sa253c, read-out: MIC",8 µg/mL
same,MIC,"[2]; Staphylococcus aureus, MRSA, Methicillin-Resistant S. aureus strains (MRSA), read-out: MIC",4 to 8 µg/mL
same,MIC,[10],8 µg/mL
same,MIC,[11],8 µg/mL
same,MIC,[12],8 µg/mL
same,MIC,[13],8 µg/mL
"O=[N+]([O-])c1ccc(C=Cc2nc(Nc3ccc(O)c(O)c3)c3ccccc3n2)o1 [Example 1, Compound VI, 2-[2-(5-nitro-2-furyl)vinyl]-4-(3,4-dihydroxyanilino)quinazoline]",MIC,[1]; [16],0.5 µg/mL
same,toxicity in vivo,[14]; S. aureus systemic infection model,relatively low toxicity
same,antimicrobial activity in vivo (viable bacteria in the kidneys),"[14]; listed as 2-[2-(5-nitro-2-furyl)vinyl]-4-(3,4-dihydroxyanilino)-quinazoline",active in vivo
same,antimicrobial activity in vivo (viable bacteria in the kidneys),[14]; listed as Example 1 compound VI,reduced the presence of viable bacteria in the kidneys
same,"mode of action (cellular process affected, incorporation of radiolabeled precursors into macromolecules)",[15],inhibition of DNA metabolism
CN[C@H](CC(C)C)C(=O)N[C@H]1C(=O)N[C@@H](CC(N)=O)C(=O)N[C@H]2C(=O)N[C@H]3C(=O)N[C@H](C(=O)N[C@H](C(=O)O)c4cc(O)cc(O)c4-c4cc3ccc4O)[C@H](O)c3ccc(c(Cl)c3)Oc3cc2cc(c3O[C@@H]2O[C@H](CO)[C@@H](O)[C@H](O)[C@H]2O[C@H]2C[C@](C)(N)[C@H](O)[C@H](C)O2)Oc2ccc(cc2Cl)[C@H]1O [Vancomycin],MIC,"[1]; Escherichia coli, ATCC25922",> 64 µg/mL
CCn1cc(C(=O)O)c(=O)c2cc(F)c(N3CCNCC3)cc21 [Norfloxacin],MIC,[1]; [16],0.03 to 0.06 µg/mL
